Calls of active or inactive are those of the source. The calls are words filed in the database; no cut-off is given here.
System: glycogen phosphorylase, muscle form (rabbit)
Assay: Inhibitory activity against muscle Glycogen Phosphorylase b; no inhibition
Settings: Muscle tissue

SMILES: NC(=O)[C@]1(O)OC[C@@H](O)[C@H](O)C1O (stereo partly specified)
- NI: inactive
